Experimental data reported in PubChem BioAssay (NCI).
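Each compound was tested at five concentrations against cells in 96-well plates for 48 hours. Here, GI50 denotes the concentration required for 50% inhibition of growth. TGI is the concentration that stops growth completely.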

Key:
Experiment in all cases: inhibition of tumour cell growth, NCI panel, 48 h
[1] = test system: OVCAR-3 ovarian
[2] = test system: NCI-H522 lung
[3] = test system: SN12C renal
[4] = test system: OVCAR-8 ovarian
[5] = test system: A498 renal
[6] = test system: MOLT-4 leukemia
[7] = test system: M14 melanoma
[8] = test system: KM12 colon
[9] = test system: ACHN renal
[10] = test system: SR leukemia

| Compound | GI50 [1] | TGI [1] | GI50 [2] | TGI [2] | GI50 [3] | TGI [3] | GI50 [4] | TGI [4] | GI50 [5] | TGI [5] | GI50 [6] | TGI [6] | GI50 [7] | TGI [7] | GI50 [8] | TGI [8] | GI50 [9] | TGI [9] | TGI [10] | GI50 [10] |
| --- | --- | --- | --- | --- | --- | --- | --- | --- | --- | --- | --- | --- | --- | --- | --- | --- | --- | --- | --- | --- |
| C1C[OH+]CC[OH+]CCNCC[OH+]CC[OH+]CCN1.[Cl-].[Pt+4] | > 100 µM | > 100 µM | 26.3 µM | > 100 µM | > 100 µM | > 100 µM | > 100 µM | > 100 µM | > 100 µM | > 100 µM | > 100 µM | > 100 µM | > 100 µM | > 100 µM | > 100 µM | > 100 µM | > 100 µM | > 100 µM |  |  |
| COC[C@@H](N=CN1CCc2cc(OC)c(OC)cc2[C@@H]1C)C(C)(C)C |  | > 100 µM |  | > 100 µM |  | > 100 µM |  | > 100 µM |  |  |  | > 100 µM |  | > 100 µM |  | > 100 µM |  | > 100 µM | > 100 µM |  |
| NCCCOCC(=O)O |  | > 100 µM |  |  |  | > 100 µM |  | > 100 µM |  |  |  | > 100 µM |  |  |  | > 100 µM |  | > 100 µM | > 100 µM |  |
| CC(=O)Nc1ccc(C(=O)NN2C(=O)C(Cl)C2c2ccc([N+](=O)[O-])cc2)cc1 (centres undefined) |  | > 100 µM |  | > 100 µM |  | > 100 µM |  | > 100 µM |  | > 100 µM |  | > 100 µM |  | > 100 µM |  |  |  | > 100 µM |  |  |
| C=CC1[C@H]2COC(C)(C)O[C@@H]2CC(=O)C1(C)C (some centres undefined) |  |  |  | > 100 µM |  | > 100 µM |  | > 100 µM |  |  |  |  |  | > 100 µM |  | > 100 µM |  | > 100 µM |  |  |
| CN(C)c1ccc([O-])cc1.CN(C)c1ccc([O-])cc1.CN(C)c1ccc([O-])cc1.CN(C)c1ccc([O-])cc1.[Ti+4] | > 100 µM | > 100 µM | 33.2 µM | 98.2 µM | > 100 µM | > 100 µM | 73.7 µM | > 100 µM | 19.4 µM | > 100 µM | 38.1 µM | > 100 µM | > 100 µM | > 100 µM | 55 µM | > 100 µM | 56.3 µM | > 100 µM |  |  |
| CCOC(=O)C1=C(c2ccccc2)N(C)c2ccccc2S1 |  | > 100 µM |  | 52.3 µM |  | 58.2 µM |  | > 100 µM |  |  |  | > 100 µM |  | > 100 µM |  |  |  | 58.5 µM | > 100 µM |  |
| O=C(Nc1cccc([N+](=O)[O-])c1)C(=O)C(C(=O)c1ccccc1-c1ccccc1)C1OC(=O)c2ccccc21 (centres undefined) |  | 36.4 µM |  | 26.2 µM |  |  |  | 71 µM |  | 60.2 µM |  | 52.4 µM |  | 41.1 µM |  | 44.2 µM |  | > 100 µM |  |  |
| COc1ccc(NC(=O)C(=O)Cc2nc3ccc([N+](=O)[O-])cc3[nH]c2=O)c(OC)c1 |  | > 100 µM |  | > 100 µM |  |  |  |  |  | > 100 µM |  | > 100 µM |  | > 100 µM |  | > 100 µM |  | > 100 µM |  |  |
| COc1cc(/C=C\c2ccc(C)cc2)cc(OC)c1OC |  | 0.00442 µM |  | 0.013 µM |  | > 69 µM |  |  |  |  |  | 0.51 µM |  |  |  |  |  | > 100 µM | 0.0917 µM |  |
| OC1c2ccccc2C2(O)C1C(c1ccccc1)C(c1ccccc1)C2(O)c1ccccc1 (centres undefined) |  | 26.9 µM |  | 31.7 µM |  | 32.9 µM |  | 43.5 µM |  |  |  | 22.8 µM |  | 28.3 µM |  | 25.3 µM |  | 29.7 µM |  |  |
| COC(=O)C1C(O)CC(c2ccccn2)N(Cc2ccccc2)C1c1ccccn1 (centres undefined) |  | > 100 µM |  | > 100 µM |  | > 100 µM |  | > 100 µM |  | > 100 µM |  | > 100 µM |  | > 100 µM |  | > 100 µM |  | > 100 µM |  |  |
| CCCCCCCCCCCCCCN |  | > 100 µM |  | > 100 µM |  | > 100 µM |  | > 100 µM |  | > 100 µM |  | > 100 µM |  |  |  | > 100 µM |  | > 100 µM |  |  |
| Cn1nc(-c2ccccc2)c(C(=O)/C=C/c2ccc(F)cc2)c(N2CCCCC2)c1=O |  |  |  | 28.7 µM |  | > 100 µM |  | 75.6 µM |  |  |  | 7.09 µM |  | 28.6 µM |  |  |  | 27.7 µM |  |  |
| CCOC(=O)C1=C(C(=O)c2ccc(C)cc2)C(c2cccc([N+](=O)[O-])c2)C(C(=O)c2ccc(C)cc2)=C(C(=O)OCC)N1 |  | 28.8 µM |  | 36.2 µM |  | 32.4 µM |  | 45 µM |  |  |  | > 100 µM |  | 32.9 µM |  | 25.4 µM |  | 28.3 µM | 35.3 µM |  |
| CCCCc1c2c(nc3c1CCc1cc4cc5c(nc4nc1-3)-c1nc3c(c(CCCC)c1CC5)CCCC3)CCCC2 |  |  |  | > 100 µM |  | > 100 µM |  | > 100 µM |  |  |  | > 100 µM |  | > 100 µM |  | > 100 µM |  | > 100 µM | > 100 µM |  |
| CCc1cccc(C(C)C)c1NC(=O)C(=O)CC(=O)c1c(C)n([O-])c2ccccc2[n+]1=O |  |  |  | > 100 µM |  | > 100 µM |  | > 100 µM |  | > 100 µM |  | > 100 µM |  | > 100 µM |  |  |  | > 100 µM |  |  |
| O=C(O)COc1ccc(O)c2c1C(=O)CCCC2=O |  | > 100 µM |  | > 100 µM |  | > 100 µM |  | > 100 µM |  | > 100 µM |  | > 100 µM |  | > 100 µM |  | > 100 µM |  | > 100 µM |  |  |
| CC1(C)C(=O)C(C)(C)C1=NN |  | > 100 µM |  | > 100 µM |  | > 100 µM |  | > 100 µM |  |  |  | > 100 µM |  | > 100 µM |  | > 100 µM |  | > 100 µM | > 100 µM |  |
| COc1ccc(-c2nc3sc(-c4ccc(Cl)cc4)cn3n2)cc1 | 1.72 µM | 7.2 µM | 14.9 µM | > 50 µM | 1.84 µM | > 50 µM | 2.6 µM | > 50 µM |  |  | 11.3 µM | > 50 µM | > 50 µM | > 50 µM | 12.2 µM | > 50 µM | 0.927 µM | 2.02 µM | 26.1 µM | 4.53 µM |
| OCCCOC(c1ccccc1)(c1ccccc1)c1ccccc1 |  | > 100 µM |  | > 100 µM |  | > 100 µM |  | > 100 µM |  |  |  | > 100 µM |  | > 100 µM |  | > 100 µM |  | > 100 µM | > 100 µM |  |
| CC(=O)NNc1nc(C)c(C(=O)NNC(=O)C(=O)Nc2c(C)cccc2C)s1 |  | 65.3 µM |  | 32.8 µM |  | > 100 µM |  | 80.1 µM |  | > 100 µM |  | 80.1 µM |  | > 100 µM |  | > 100 µM |  | > 100 µM |  |  |
